In brackets after ≈: the same amount, converted by molar mass. Like-named read-outs stand apart in the source and are kept apart here.
Experiments:
[1] = tested on: NO production by LPS-stimulated RAW 264.7 macrophages; assay: Inhibition of NO production by LPS-stimulated macrophages (Griess); assay type: cell-based, murine; conditions: mean ± SD, n = 3
[2] = tested on: TNF-α production by LPS-stimulated RAW 264.7 macrophages; assay: Inhibition of TNF-α production by LPS-stimulated macrophages (ELISA); assay type: cell-based, murine; conditions: for IC50: Mus musculus, read-out: IC50 TNF-α; for inhibition of TNF-α: LPS-stimulated RAW 264.7
[3] = Macrophage cytotoxicity, LDH release assay; assay type: cell-based, murine; conditions: mouse, RAW 264.7 macrophages stimulated with LPS; LPS-stimulated RAW 264.7, LDH release; mean ± SD, n = 3
Protocol: Cytotoxic effects of chalcone samples on RAW 264.7 cell viability in cultures stimulated with LPS were determined using the LDH (lactate dehydrogenase) release assay as previously described [58]. Cytoplasmic enzyme LDH release into cell culture supernatants was detected using a commercial LDH kit (Doles, GO, Brazil). Cell death was expressed as percentage of LDH release, which was calculated using the following formula: percentage of LDH release = 100 × (test LDH release − spontaneous release)/(maximum release − spontaneous release). The maximum release was determined following dissolution of cell monolayers using 1% (vol/vol) Triton X-100. The spontaneous release was determined in supernatants from cultures incubated in the presence of LPS and DMSO, used as a solvent for chalcone samples.

[4] = tested on: M. bovis BCG; assay: microbe, parasite or virus in culture; assay type: cell-based, Mycobacterium bovis BCG; conditions: for MIC50 / MIC90: Mycobacterium tuberculosis variant bovis BCG, BCG, 168 h; for MIC50: read-out: MIC50 M. bovis BCG; for MIC90: read-out: MIC90 M. bovis BCG
[5] = tested on: IL-1β production by LPS-stimulated RAW 264.7 macrophages; assay: Inhibition of IL-1β production by LPS-stimulated macrophages (ELISA); assay type: cell-based, murine; conditions: for IC50: Mus musculus, RAW264.7, 24 h, read-out: IC50 IL-1β; for inhibition of IL-1β: LPS-stimulated RAW 264.7
Protocol: (§1) Murine RAW 264.7 macrophage cell line (American Type Culture Collection, Manassas, VA, USA), was cultured in Dulbecco’s modified Eagle’s medium (DMEM-F12) supplemented with 10% Fetal Bovine Serum (FBS) and gentamicin (50 µg/mL) in 5% CO2 atmosphere at 37 °C. For experiments, the cells were seeded in 96-well plates (1 × 10^5 cells/well) and incubated for 24 h at 37 °C. For macrophage stimulation, the cell cultures were treated with LPS (1 µg/mL) and incubated for additional 24 h in the presence or absence of the chalcone samples (samples 1–41) that were used at concentrations of 100, 20, 4 and 0.8 µg/mL. In some experiments, a nitric oxide (NO) inhibitor, L-NMMA (20 μg/mL), was used as a positive control of NO inhibition, and a non-steroidal anti-inflammatory drug indomethacin, known to inhibit production of prostaglandins, was used as a positive control of PGE2 inhibition.
(§2) The frozen culture supernatants samples were thawed and immediately analyzed using commercially available enzyme-linked immunosorbent assay (ELISA) kits to measure TNF-α, IL-1β (BD Biosciences) and PGE2 (R&D Systems, Minneapolis, MN, USA), according to the manufacturer’s instructions. Standard curves for each mediator were generated using reference cytokine concentrations supplied by the manufacturer. Nitric oxide (NO) generation was assessed by the Griess method to measure nitrites, which are stable breakdown NO products.

[6] = tested on: PGE2 production by LPS-stimulated RAW 264.7 macrophages; assay: Inhibition of PGE2 production by LPS-stimulated macrophages (ELISA); assay type: cell-based, murine; conditions: Mus musculus, RAW264.7, 24 h, read-out: IC50 PGE2
Protocol: as §1, §2

[7] = tested on: M. tuberculosis H37Rv; assay: microbe, parasite or virus in culture; assay type: cell-based, Mycobacterium tuberculosis; conditions: Mycobacterium tuberculosis
[8] = tested on: M. tuberculosis M299; assay: microbe, parasite or virus in culture; assay type: cell-based, Mycobacterium tuberculosis; conditions: for MIC50 / MIC90: Mycobacterium tuberculosis, M299, 120 h
[9] = tested on: M. tuberculosis strain H37Rv in RAW 264.7 macrophages; assay: Intracellular growth of M. tuberculosis H37Rv in infected macrophages (CFU); assay type: cell-based, Mycobacterium tuberculosis; conditions: Mycobacterium tuberculosis, H37RV, 96 h, infected RAW 264.7, MOI 1:1, 4 days, Figure 3C
Protocol: (§3) RAW 264.7 macrophages were plated (1 × 10^5 cells/well) in antibiotic-free DMEM-F12 medium supplemented with 10% fetal bovine serum and incubated for 24 h. Prior to infection, mycobacterial suspensions were sonicated for 1 minute to disperse clumps and optical densities were adjusted to 0.1. The macrophage cultures were infected at a MOI of 1:1 (macrophage: bacterium). Phagocytosis was allowed to progress for 3 h. After 3 h, extracellular mycobacteria were removed by washing with PBS 1X and the infected cell monolayers were treated for 4 days with chalcone samples or rifampicin. Macrophage viability was monitored by LDH assay and was over 80% in all experiments. On day 4 after infection, cells were lysed cells with 1% saponin to release intracellular bacteria. Lysate aliquots were diluted 10-fold in PBS, plated in triplicates on 7H10 agar plates and incubated at 37 °C. After 21 days, total CFU were determined.

[10] = tested on: RAW 264.7 macrophages infected with M. tuberculosis H37Rv; assay: Toxicity for infected macrophages, LDH assay; assay type: cell-based, murine; conditions: Mus musculus, RAW264.7, 96 h; infected RAW 264.7, 4 days treatment; Figure 3D
Protocol: Cytotoxic effects of chalcone samples on RAW 264.7 cell viability in cultures stimulated with LPS were determined using the LDH (lactate dehydrogenase) release assay as previously described. Cytoplasmic enzyme LDH release into cell culture supernatants was detected using a commercial LDH kit (Doles, GO, Brazil). Cell death was expressed as percentage of LDH release, which was calculated using the following formula: percentage of LDH release = 100 × (test LDH release − spontaneous release)/(maximum release − spontaneous release). The maximum release was determined following dissolution of cell monolayers using 1% (vol/vol) Triton X-100. The spontaneous release was determined in supernatants from cultures incubated in the presence of LPS and DMSO, used as a solvent for chalcone samples.
as §3

[11] = Mus musculus, RAW264.7, 24 h, read-out: IC50 NO, LPS (1 µg/mL)-stimulated RAW 264.7, 24 h
[12] = H37RV, 120 h, read-out: MIC50 M. tuberculosis H37Rv
[13] = Table 5, same values as M. tuberculosis H37Rv in Table 3, read-out: MIC50
[14] = LPS (1 µg/mL)-stimulated RAW 264.7, 24 h, read-out: IC50 NO
[15] = RAW264.7, LPS (1 µg/mL)-stimulated RAW 264.7, 24 h, mean ± SD, n = 3
[16] = Mus musculus, RAW264.7, 24 h, LPS (1 µg/mL)-stimulated RAW 264.7, 24 h, read-out: IC50 NO

| SMILES | IC50 [1, 11] | IC50 [3] | MIC50 [4] | MIC90 [4] | IC50 [5] | IC50 [6] | MIC90 ([7]; H37RV, 120 h) | MIC50 [7, 12] | MIC50 [7, 13] | MIC50 [8] | MIC90 [8] | MIC50 [9] | IC50 [10] | IC50 [1, 14] | IC50 [2, 15] | IC50 [1, 16] | also measured |
| --- | --- | --- | --- | --- | --- | --- | --- | --- | --- | --- | --- | --- | --- | --- | --- | --- | --- |
| O=C(/C=C/c1ccccc1Cl)c1ccc(Br)cc1 [Chalcone 15] | 36.7 µM | 256 ± 3.8 µM | 13.8 ± 4.4 µM (≈ 4.44 µg/mL) | 265 ± 4.5 µM (≈ 85.3 µg/mL) | > 311 µM | 32.8 ± 3.7 µM | 288 ± 5.5 µM (≈ 92.6 µg/mL) | 17.1 ± 3.8 µM (≈ 5.5 µg/mL) | 17.1 ± 3.8 µM (≈ 5.5 µg/mL) | > 311 µM | > 311 µM | 242 ± 4.4 µM (≈ 77.9 µg/mL) | 214 ± 2.5 µM | – | – | – | IC50 ([2]; RAW264.7, 24 h): > 311 µM; activity against M299 compared with H37Rv [8]: significantly less potent |
| COc1ccc(C(=O)/C=C/c2ccccc2)cc1 [Chalcone 24] | < 21 µM | 245 ± 4.5 µM | 31.5 ± 5.9 µM (≈ 7.51 µg/mL) | 399 ± 6.9 µM (≈ 95.1 µg/mL) | 56.6 ± 3.5 µM | 90 ± 3.4 µM | 375 ± 6.8 µM (≈ 89.3 µg/mL) | 25.3 ± 5.2 µM (≈ 6.03 µg/mL) | 25.3 ± 5.2 µM (≈ 6.03 µg/mL) | > 420 µM | > 420 µM | 42.6 ± 3.1 µM (≈ 10.2 µg/mL) | 319 ± 4.6 µM | 21.3 ± 4.5 µM | 78.8 ± 6.5 µM | – | inhibition of TNF-α [2]: strongly inhibit; inhibition of IL-1β [5]: potent inhibitors; activity against M299 compared with H37Rv [8]: significantly less potent |
| O=C(/C=C/c1ccc([N+](=O)[O-])cc1)c1ccccc1Cl [Chalcone 41] | < 21 µM | > 348 µM | 30.5 ± 4.7 µM (≈ 8.77 µg/mL) | 247 ± 7.2 µM (≈ 71 µg/mL) | 13.5 ± 3.9 µM | 67.4 ± 2.2 µM | 275 ± 6.7 µM (≈ 79.2 µg/mL) | 82.1 ± 4.3 µM (≈ 23.6 µg/mL) | 82.1 ± 4.3 µM (≈ 23.6 µg/mL) | – | – | – | – | 11.2 ± 5 µM | 68.5 ± 3.3 µM | – | inhibition of TNF-α [2]: strongly inhibit; inhibition of IL-1β [5]: potent inhibitors |
| CO[C@H]1/C=C/O[C@@]2(C)Oc3c(C)c(O)c4c(O)c(c(/C=N/N5CCN(C)CC5)c(O)c4c3C2=O)NC(=O)/C(C)=C\C=C\[C@H](C)[C@H](O)[C@@H](C)[C@@H](O)[C@@H](C)[C@H](OC(C)=O)[C@@H]1C [Rifampicin, rifampicin, reference compound] | – | – | 0.01 ± 0.03 µM (≈ 0.00823 µg/mL) | 0.2 ± 0.01 µM (≈ 0.165 µg/mL) | – | – | 0.15 ± 0.08 µM (≈ 0.123 µg/mL) | 0.11 ± 0.02 µM (≈ 0.0905 µg/mL) | – | 0.2 ± 0.18 µM (≈ 0.165 µg/mL) | 3.3 ± 0.16 µM (≈ 2.72 µg/mL) | – | – | – | – | – | – |
| COc1ccc(C(=O)/C=C/c2ccc([N+](=O)[O-])cc2)cc1 [Chalcone 40] | < 21 µM | > 353 µM | 14.5 ± 3.1 µM (≈ 4.11 µg/mL) | > 353 µM | > 353 µM | > 413 µM | 352 ± 5.9 µM (≈ 99.7 µg/mL) | 131.7 ± 1.3 µM (≈ 37.3 µg/mL) | 131.7 ± 1.3 µM (≈ 37.3 µg/mL) | – | – | – | – | 13.5 ± 5.5 µM | > 353 µM | – | – |
| Cc1ccc(C(=O)/C=C/c2ccc(N(C)C)cc2)cc1 [Chalcone 19] | – | > 377 µM | 56.4 ± 4.4 µM (≈ 15 µg/mL) | 322.7 ± 1.7 µM (≈ 85.6 µg/mL) | > 377 µM | > 377 µM | > 377 µM | 112 ± 6.4 µM (≈ 29.8 µg/mL) | 112 ± 6.4 µM (≈ 29.8 µg/mL) | – | – | – | – | – | > 377 µM | 27.8 ± 3.8 µM | – |
| COc1ccc(/C=C/C(=O)c2ccc(C)cc2)cc1 [Chalcone 21] | – | > 396 µM | 33.3 ± 5.4 µM (≈ 8.4 µg/mL) | 362 ± 5.9 µM (≈ 91.4 µg/mL) | > 396 µM | 50.1 ± 1 µM | 368 ± 5.2 µM (≈ 92.9 µg/mL) | 66.9 ± 6.2 µM (≈ 16.9 µg/mL) | 66.9 ± 6.2 µM (≈ 16.9 µg/mL) | – | – | – | – | – | > 396 µM | 30.6 ± 4.7 µM | – |
| O=C(/C=C/c1ccc(F)cc1)c1ccc(Br)cc1 [Chalcone 9] | – | > 328 µM | 35.8 ± 3.9 µM (≈ 10.9 µg/mL) | 309 ± 5.3 µM (≈ 94.2 µg/mL) | – | – | 252 ± 2.7 µM (≈ 76.9 µg/mL) | 24.4 ± 4.5 µM (≈ 7.45 µg/mL) | 24.4 ± 4.5 µM (≈ 7.45 µg/mL) | 53.6 ± 1.9 µM (≈ 16.3 µg/mL) | 313 ± 1.4 µM (≈ 95.5 µg/mL) | 12 ± 1.1 µM (≈ 3.66 µg/mL) | > 321 µM | – | > 328 µM | > 328 µM | – |
| O=C(/C=C/c1ccccc1)c1ccc(Br)cc1 [Chalcone 8] | – | 191 ± 5.2 µM | 13.4 ± 4 µM (≈ 3.85 µg/mL) | 33.7 ± 4.6 µM (≈ 9.68 µg/mL) | – | – | 326 ± 3.3 µM (≈ 93.6 µg/mL) | 10.5 ± 3.8 µM (≈ 3.02 µg/mL) | 10.5 ± 3.8 µM (≈ 3.02 µg/mL) | 10.2 ± 4.9 µM (≈ 2.93 µg/mL) | 344.7 ± 0.4 µM (≈ 99 µg/mL) | 13.5 ± 0.6 µM (≈ 3.88 µg/mL) | 66.1 ± 1.5 µM | – | 66.9 ± 4.5 µM | 46.4 ± 2.3 µM | MIC90 M. bovis BCG ([4]; culture, 7 days, MTT): 33.7 ± 4.6 µM (≈ 9.68 µg/mL) |
| COc1ccc(C(=O)/C=C/c2ccc(F)cc2)cc1 [Chalcone 25] | – | > 390 µM | 15.8 ± 5.2 µM (≈ 4.05 µg/mL) | 228 ± 5.8 µM (≈ 58.5 µg/mL) | > 390 µM | 57.5 ± 2.1 µM | 366.1 ± 3.6 µM (≈ 93.8 µg/mL) | 25.1 ± 5.2 µM (≈ 6.43 µg/mL) | 25.1 ± 5.2 µM (≈ 6.43 µg/mL) | 18.5 ± 3.6 µM (≈ 4.74 µg/mL) | 366.9 ± 0.3 µM (≈ 94 µg/mL) | 49.1 ± 1.7 µM (≈ 12.6 µg/mL) | 264 ± 4.4 µM | – | > 390 µM | 41.2 ± 4.6 µM | – |
